This experiment addresses T1, UGT2B7 (Homo sapiens, UniProt P16662).
T1 construct: using pooled human liver microsomes; tissue BD Gentest Co. H161; host or cells: pooled human liver microsomes
T1 sequence (P16662 24-529): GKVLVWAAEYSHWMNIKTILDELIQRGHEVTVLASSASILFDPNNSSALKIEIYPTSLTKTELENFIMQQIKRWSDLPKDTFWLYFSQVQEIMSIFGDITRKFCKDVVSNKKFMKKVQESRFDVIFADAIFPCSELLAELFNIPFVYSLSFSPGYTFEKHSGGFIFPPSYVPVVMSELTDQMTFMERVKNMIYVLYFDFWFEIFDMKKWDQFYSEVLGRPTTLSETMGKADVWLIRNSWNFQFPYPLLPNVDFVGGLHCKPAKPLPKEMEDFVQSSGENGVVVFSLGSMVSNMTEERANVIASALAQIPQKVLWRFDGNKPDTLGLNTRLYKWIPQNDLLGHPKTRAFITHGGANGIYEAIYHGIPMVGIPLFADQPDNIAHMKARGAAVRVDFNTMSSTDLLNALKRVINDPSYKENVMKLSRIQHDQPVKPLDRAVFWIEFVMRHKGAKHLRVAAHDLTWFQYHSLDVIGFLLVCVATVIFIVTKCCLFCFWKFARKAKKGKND
The experiment in a line: UGT2B7 azidothymidine glucuronidation inhibition in pooled human liver microsomes. The following applies: pooled human liver microsomes (H161), 100 μM azidothymidine, no inhibition at 1,000 μM of corydaline. It counts as in vitro ADME. On the procedure: The inhibitory potencies (IC50 values) of corydaline were also determined with UGT assays in the presence and absence of corydaline (final concentrations of 1–1,000 μM with acetonitrile concentration less than 0.5% v/v) using pooled human liver microsomes. 17β-Estradiol 3-glucuronidation, trifluoperazine glucuronidation, propofol glucuronidation, and azidothymidine glucuronidation activities were determined as probe activities for UGT1A1, UGT1A4, UGT1A9, and UGT2B7, respectively, using LC/MS/MS. Incubation mixtures were prepared in a total volume of 100 μL, as follows: Pooled human liver microsomes (0.2 mg/mL for 17β-estradiol, trifluoperazine and azidothymidine; 0.1 mg/mL for propofol), 2 mM UDPGA, 25 μg/mL alamethicin, 10 mM MgCl2, 50 mM tris buffer (pH 7.4), UGT-isoform specific probe substrate (20 μM 17β-estradiol for UGT1A1, 5 μM trifluoperazine for UGT1A4, 10 μM propofol for UGT1A9, or 100 μM azidothymidine for UGT2B7), and various concentrations of corydaline (1−1000 μM). […]
Glucuronides produced from UGT isoform-specific substrates were respectively determined by LC/MS/MS. […] Quantification was performed by SRM of the [M+H]^+ ion for trifluoperazine glucuronide and azidothymidine glucuronide or [M−H]^− for 17β-estradiol 3-glucuronide and propofol glucuronide and the related product ion for each metabolite. […]
For orientation: Microsomes from liver hold many membrane-bound enzymes, among them those of drug oxidation.

For the molecule `COc1cc2c(cc1OC)C1C(C)c3ccc(OC)c(OC)c3CN1CC2` (centres unmarked) [Corydaline, 2,3,9,10-tetramethoxy-13-methyl-5,8,13,13a-tetrahydro-6H-isoquino[3,2-a]isoquinoline], the “IC50, UGT2B7 azidothymidine glucuronidation” value was “not inhibited”. The “IC50, UGT2B7 azidothymidine glucuronidation” value (listed as corydaline) was “No inhibition *”.

These data come from paper PMC6264278, “Corydaline Inhibits Multiple Cytochrome P450 and UDP-Glucuronosyltransferase Enzyme Activities in Human Liver Microsomes” (Molecules, 2011).
